Values joined by “and” are separate entries in the source; they are usually repeats but may differ in a detail not shown here. Equal values may be shown once.
Experiments:
[1] = target: T1, BRD4 BD2 (Homo sapiens, UniProt O60885); test: NanoBRET bromodomain assay, NanoLuc-BRD4-BD2 in HEK293 cells; assay type: binding; settings: nanoBRET assay, given as symbol only; for Selectivity (BD1/BD2): higher number denotes higher selectivity; for BD2: lower number denotes higher potency
T1 construct: HEK293 cells were transfected using NanoLuc-BRD4-BD1 or NanoLuc-BRD4-BD2 fusion vectors
Method: Plates were then incubated at 37° C.+5% CO2 incubator for 2 hours.
Fold Selectivity Calculated (IC50 BD1/IC50 BD2).

[2] = tested on: imiquimod-induced psoriasis; test: Imiquimod-induced psoriasis model; assay type: in vivo, mice; set-up: Spleen Weight / Spleen Weight Ratio: unit not given here; settings: for PASI Scores: IMI + Deucravacitinib 3 mg/kg; for Mean scores of the presence of erythema on the skin of animals at the area of induction of psoriasis / Mean scores of the presence of induration on the skin of animals at the area of induction of psoriasis / Mean scores of the presence of peeling on the skin of animals at the area of induction of psoriasis: mean ± SEM
Text: Imiquimod-induced psoriasis is a model of psoriasis in mice that induces psoriasis-like dermatitis. The pathology closes resembles human plaque-type psoriasis and is a valuable tool for testing new therapies against psoriasis. […] Compound A was formulated in a 5% DMSO/40% PEG-400/55% (0.9% NaCl w/v water) solution (Table 2F). Experimental groups for the study are outlined in Table 4. Prior to study initiation, the backs of all animals in the study were depilated to allow for induction of psoriasis and monitoring of disease progression.
Once assigned to experimental groups, on Day 1 and continuing through Day 14, topical imiquimod (IMI; Aldara™ containing 5% Imiquimod) was administered to the dorsal depilated animals, and animals in group 1 received topical administration of Excipial® hydrocream (65 mg). […] Clobetasol was applied topically for animals in group 11.
Body weights were recorded three times a week from Day 1 to Day 8, and daily from Day 8 until the study end at Day 15. At termination on D15 the spleen weight ratio was determined. Disease severity was assessed using the psoriasis area severity index (PASI) daily from Day 8 until study completion on Day 15. The PASI score was calculated based on three parameters (presence of erythema, induration of the skin, and peeling of the skin at the area of induction) on a scale of 0 to 4 (0=no more or absence, 1=low, 2=moderate, 3=high, 4=severe). The PASI score for each animal was calculated as the sum of the score of each parameter measured. The score of the use of enrichment (SUE) was also assessed daily from Day 8 to Day 15. At study completion on Day 15, animal behavior was evaluated using an open field to assess distance travelled, number scratching, and licking and rearing performed in 10 minutes. Upon study termination animals were sacrificed, the spleen was excised and weighed, and blood samples were collected. Serum was isolated from the blood sample for cytokine and other biomarker analysis. IL-1B, IL-6, IL-17, and TNF-α assayed using simple plex technique on an ELLA automated immunoassay system. IL-22 and IL-23 were assayed by ELISA.
The imiquimod-induced model of psoriasis was used to assess the efficacy of Compound A in treating psoriasis. […] Treatment started on Day 8 after induction so reference to day 1 of treatment is to Day 8 and day 7 of treatment is to Day 14.

[3] = IMI-psoriasis model, behavioral evaluation D15, 3 mg/kg, individual animals
[4] = IMI-psoriasis model, behavioral evaluation, 3 mg/kg, individual animals
[5] = IMI-psoriasis model, mice, 3 mg/kg, individual animals
[6] = IMI + 3 mg/kg, D8 (before start of treatment)

CSCCn1cc(-c2ccccc2)c(-c2cn(C)c(=O)c3[nH]c(-c4cnn(C(F)(F)F)c4)cc23)cc1=O [Compound C, 6-methyl-4-(1-(2-(methylthio)ethyl)-2-oxo-5-phenyl-1,2-dihydropyridin-4-yl)-2-(1-(trifluoromethyl)-1H-pyrazol-4-yl)-1,6-dihydro-7H-pyrrolo[2,3-c]pyridin-7-one]
Selectivity (BD1/BD2) [1]: >>>>
BD2 [1]: <

Cn1cc(-c2ccccc2)c(-c2cn(C)c(=O)c3[nH]c(-c4cnn(C(F)(F)F)c4)c(F)c23)cc1=O [Compound D, 3-fluoro-6-methyl-4-(1-methyl-2-oxo-5-phenyl-1,2-dihydropyridin-4-yl)-2-(1-(trifluoromethyl)-1H-pyrazol-4-yl)-1,6-dihydro-7H-pyrrolo[2,3-c]pyridin-7-one]
Selectivity (BD1/BD2) [1]: >>>>
BD2 [1]: <

Deucravacitinib [reference compound]
symptoms by day 15 (representative images) ([2]; 3 mg/kg): nearly entirely symptom free
PASI-90 (change in PASI score ≥90%) by day 7 of treatment ([2]; 3 mg/kg IP once daily): surpassed PASI-90
Body Weight D1 ([2]; IMI + 3 mg/kg, Day 1 (before treatment start on Day 8), individual animals, 3 mg/kg, in g (unit assumed)): 18.26 and 17.37 and 16.82 and 17.07 and 16.32 and 18.04 and 16.47 and 17.58
Body Weight D3 ([2]; IMI + 3 mg/kg, Day 3 (before treatment start on Day 8), individual animals, 3 mg/kg, in g (unit assumed)): 16.20 and 16.31 and 14.76 and 15.24 and 15.52 and 15.99 and 14.97 and 15.55
Body Weight D5 ([2]; IMI + 3 mg/kg, Day 5 (before treatment start on Day 8), individual animals, 3 mg/kg, in g (unit assumed)): 18.16 and 16.94 and 15.74 and 15.23 and 15.99 and 17.09 and 14.94 and 16.50
Body Weight D7 ([2]; IMI + 3 mg/kg, Day 7 (before treatment start on Day 8), individual animals, 3 mg/kg, in g (unit assumed)): 17.33 and 17.08 and 15.79 and 15.48 and 16.18 and 17.55 and 15.22 and 16.65
Body Weight D8 ([2]; IMI + 3 mg/kg, Day 8 (first day of treatment), individual animals, 3 mg/kg, in g (unit assumed)): 17.09 and 17.16 and 15.63 and 15.50 and 15.52 and 17.05 and 14.52 and 15.81
Body Weight D9 ([2]; IMI + 3 mg/kg, Day 9, individual animals, 3 mg/kg, in g (unit assumed)): 16.60 and 16.54 and 15.63 and 15.57 and 16.01 and 16.79 and 14.75 and 13.93
Body Weight D10 ([2]; IMI + 3 mg/kg, Day 10, individual animals, 3 mg/kg, in g (unit assumed)): 16.71 and 16.43 and 16.08 and 15.84 and 14.94 and 16.16 and 14.20
Body Weight D11 ([2]; IMI + 3 mg/kg, Day 11, individual animals, 3 mg/kg, in g (unit assumed)): 17.38 and 15.87 and 15.51 and 15.55 and 16.43 and 14.72
Body Weight D12 ([2]; IMI + 3 mg/kg, Day 12, individual animals, 3 mg/kg, in g (unit assumed)): 17.70 and 15.90 and 15.59 and 15.82 and 17.15 and 15.06
Body Weight D13 ([2]; IMI + 3 mg/kg, Day 13, individual animals, 3 mg/kg, in g (unit assumed)): 17.75 and 16.24 and 15.77 and 15.95 and 16.97 and 14.52
Body Weight D14 ([2]; IMI + 3 mg/kg, Day 14, individual animals, 3 mg/kg, in g (unit assumed)): 18.00 and 16.31 and 15.59 and 16.06 and 17.07 and 15.08
Body Weight D15 ([2]; IMI + 3 mg/kg, Day 15, individual animals, 3 mg/kg, in g (unit assumed)): 18.03 and 16.39 and 16.00 and 16.29 and 17.17 and 15.22
MBWC D1-D8 ([2]; IMI + 3 mg/kg, body weight change Day 1 to Day 8 (before treatment), individual animals, 3 mg/kg): −1.17 and −0.21 and −1.19 and −1.57 and −0.80 and −0.99 and −1.95 and −1.77
MBWC D8-D15 ([2]; IMI + 3 mg/kg, body weight change Day 8 to Day 15 (treatment period), individual animals, 3 mg/kg): 0.94 and 0.76 and 0.50 and 0.77 and 0.12 and 0.70
PASI Scores ([2]; D8 (day treatment started), individual animals): 6 (3×) and 7 and 10 and 8 (3×)
PASI Scores ([2]; D9, individual animals): 7 (3×) and 6 (4×) and 8
PASI Scores ([2]; D10, individual animals): 6 (6×) and 7
PASI Scores ([2]; D11, individual animals): 6 (3×) and 5 (2×) and 4
PASI Scores ([2]; D12, individual animals): 4 (2×) and 3 (4×)
PASI Scores ([2]; D13, individual animals): 2 (3×) and 0 (2×) and 4
PASI Scores ([2]; D14, individual animals): 1 (4×) and 0 and 2
PASI Scores ([2]; D15, individual animals): 1 (2×) and 0 (4×)
Use Enrichment D1 ([2]; IMI-psoriasis model, D1, 3 mg/kg, per cage (two animals)): 4.0
Use Enrichment D10 ([2]; IMI-psoriasis model, D10, 3 mg/kg, per cage (two animals)): 0.0
Use Enrichment D14 ([2]; IMI-psoriasis model, D14, 3 mg/kg, per cage (two animals)): 3.0 and 3.5 and 2.0
Use Enrichment D15 ([2]; IMI-psoriasis model, D15, 3 mg/kg, per cage (two animals)): 4.0 and 2.0
Number Licking [2, 3]: 1 and 2 (2×) and 7 and 8
Number Licking + Scratching [2, 3]: 2 (3×) and 10 and 20
Number Scratching [2, 3]: 1 and 0 (2×) and 3 and 12
Distance Traveled [2, 4]: 14 m (2×) and 9 m and 19 m and 12 m
Number Rearings [2, 4]: 31 and 22 and 58 and 68 and 38
Use Enrichment Mean D1-D8 ([2]; IMI-psoriasis model, mean D1-D8, 3 mg/kg, per cage (two animals)): 2.50 and 2.00
Spleen Weight [2, 5]: 195.00 and 187.27 and 171.30 and 177.57 and 171.11 and 127.21
Spleen Weight Ratio [2, 5]: 1081.53 and 1142.59 and 1070.63 and 1090.06 and 996.56 and 835.81
Mean scores of the presence of erythema on the skin of animals at the area of induction of psoriasis [2, 6]: 2.1 ± 0.1
Mean scores of the presence of induration on the skin of animals at the area of induction of psoriasis [2, 6]: 2.8 ± 0.3
Mean scores of the presence of peeling on the skin of animals at the area of induction of psoriasis [2, 6]: 2.5 ± 0.2
Mean scores of the presence of erythema on the skin of animals at the area of induction of psoriasis ([2]; IMI + 3 mg/kg, D9): 2.1 ± 0.1
Mean scores of the presence of induration on the skin of animals at the area of induction of psoriasis ([2]; IMI + 3 mg/kg, D9): 2.4 ± 0.2
Mean scores of the presence of peeling on the skin of animals at the area of induction of psoriasis ([2]; IMI + 3 mg/kg, D9): 2.1 ± 0.1
Mean scores of the presence of erythema on the skin of animals at the area of induction of psoriasis ([2]; IMI + 3 mg/kg, D10): 2.3 ± 0.2
Mean scores of the presence of induration on the skin of animals at the area of induction of psoriasis ([2]; IMI + 3 mg/kg, D10): 2.0 ± 0.2
Mean scores of the presence of peeling on the skin of animals at the area of induction of psoriasis ([2]; IMI + 3 mg/kg, D10): 1.9 ± 0.1
Mean scores of the presence of erythema on the skin of animals at the area of induction of psoriasis ([2]; IMI + 3 mg/kg, D11): 1.8 ± 0.4
Mean scores of the presence of induration on the skin of animals at the area of induction of psoriasis ([2]; IMI + 3 mg/kg, D11): 1.5 ± 0.2
Mean scores of the presence of peeling on the skin of animals at the area of induction of psoriasis ([2]; IMI + 3 mg/kg, D11): 2.0 ± 0.3
Mean scores of the presence of erythema on the skin of animals at the area of induction of psoriasis ([2]; IMI + 3 mg/kg, D12): 1.8 ± 0.2
Mean scores of the presence of induration on the skin of animals at the area of induction of psoriasis ([2]; IMI + 3 mg/kg, D12): 0.5 ± 0.2
Mean scores of the presence of peeling on the skin of animals at the area of induction of psoriasis ([2]; IMI + 3 mg/kg, D12): 1.0 ± 0.0
Mean scores of the presence of erythema on the skin of animals at the area of induction of psoriasis ([2]; IMI + 3 mg/kg, D13): 0.8 ± 0.3
Mean scores of the presence of induration on the skin of animals at the area of induction of psoriasis ([2]; IMI + 3 mg/kg, D13): 0.0 ± 0.0
Mean scores of the presence of peeling on the skin of animals at the area of induction of psoriasis ([2]; IMI + 3 mg/kg, D13): 0.8 ± 0.3
Mean scores of the presence of erythema on the skin of animals at the area of induction of psoriasis ([2]; IMI + 3 mg/kg, D14): 0.2 ± 0.2
Mean scores of the presence of induration on the skin of animals at the area of induction of psoriasis ([2]; IMI + 3 mg/kg, D14): 0.0 ± 0.0
Mean scores of the presence of peeling on the skin of animals at the area of induction of psoriasis ([2]; IMI + 3 mg/kg, D14): 0.8 ± 0.2
Mean scores of the presence of erythema on the skin of animals at the area of induction of psoriasis ([2]; IMI + 3 mg/kg, D15): 0.0 ± 0.0
Mean scores of the presence of induration on the skin of animals at the area of induction of psoriasis ([2]; IMI + 3 mg/kg, D15): 0.0 ± 0.0
Mean scores of the presence of peeling on the skin of animals at the area of induction of psoriasis ([2]; IMI + 3 mg/kg, D15): 0.3 ± 0.2
Mean PASI Scores in IMI-Psoriasis Model ([2]; mice, IMI + 3 mg/kg, D8 (before start of treatment)): 7.4 ± 0.5
Mean PASI Scores in IMI-Psoriasis Model ([2]; mice, IMI + 3 mg/kg, D9): 6.6 ± 0.3
Mean PASI Scores in IMI-Psoriasis Model ([2]; mice, IMI + 3 mg/kg, D10): 6.1 ± 0.1
Mean PASI Scores in IMI-Psoriasis Model ([2]; mice, IMI + 3 mg/kg, D11): 5.3 ± 0.3
Mean PASI Scores in IMI-Psoriasis Model ([2]; mice, IMI + 3 mg/kg, D12): 3.3 ± 0.2
Mean PASI Scores in IMI-Psoriasis Model ([2]; mice, IMI + 3 mg/kg, D13): 1.7 ± 0.6
Mean PASI Scores in IMI-Psoriasis Model ([2]; mice, IMI + 3 mg/kg, D14): 1.0 ± 0.3
Mean PASI Scores in IMI-Psoriasis Model ([2]; mice, IMI + 3 mg/kg, D15): 0.3 ± 0.2
use of enrichment (nesting) ([2]; relative to vehicle-treated psoriasis animals): about half that seen with Compound A
